Reference: PubChem BioAssay (NCI)
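Cells were grown in 96-well plates and exposed to each compound for 48 hours at five concentrations; endpoints were interpolated linearly between bracketing concentrations, or set to the highest concentration if not reached. GI50 = concentration required for 50% inhibition of growth. Definition used: TGI = concentration required for complete inhibition of growth.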

Columns and labels:
Assay in all cases: NCI anticancer screen, dose series, 48 h
[1] = system: HCT-116 colon
[2] = system: NCI-H522 lung
[3] = system: SK-OV-3 ovarian
[4] = system: MCF7 breast
[5] = system: K-562 leukemia
[6] = system: KM12 colon
[7] = system: RXF 393 renal
[8] = system: MDA-MB-435
[9] = system: NCI/ADR-RES ovarian
[10] = system: PC-3 prostate
[11] = system: MOLT-4 leukemia
[12] = system: SK-MEL-5 melanoma
[13] = system: LOX IMVI melanoma
[14] = system: HL-60(TB) leukemia
[15] = system: UO-31 renal
[16] = system: EKVX NSCLC
[17] = system: OVCAR-4 ovarian
[18] = system: IGROV1 ovarian
[19] = system: HT29 colon
[20] = system: NCI-H23 lung
[21] = system: SK-MEL-28 melanoma
[22] = system: 786-0 renal
[23] = system: OVCAR-3 ovarian
[24] = system: OVCAR-8 ovarian
[25] = system: HOP-92 NSCLC
[26] = system: SNB-19 CNS
[27] = system: UACC-257 melanoma
[28] = system: SF-295 CNS
[29] = system: NCI-H460 lung

C#Cc1ccc(NC(=O)c2ccc(/C=C/C(=O)c3nccn3C)cc2)cc1
GI50 [1]: 326 nM | TGI [1]: 721 nM | GI50 [2]: 518 nM | TGI [2]: 1370 nM | GI50 [3]: 979 nM | TGI [3]: 24300 nM | GI50 [4]: 300 nM | TGI [4]: 1090 nM | GI50 [5]: 136 nM | TGI [5]: 6550 nM | GI50 [6]: 421 nM | TGI [6]: 990 nM | GI50 [7]: 408 nM | TGI [7]: 796 nM | GI50 [8]: 580 nM | TGI [8]: 1500 nM | GI50 [9]: 770 nM | TGI [9]: 25000 nM | GI50 [10]: 476 nM | TGI [10]: 1530 nM | GI50 [11]: 582 nM | TGI [11]: 1540 nM | GI50 [12]: 490 nM | TGI [12]: 1010 nM | GI50 [13]: 365 nM | TGI [13]: 711 nM | GI50 [14]: 507 nM | TGI [14]: 1370 nM | GI50 [15]: 346 nM | TGI [15]: 677 nM | GI50 [16]: 565 nM | TGI [16]: 1450 nM | GI50 [17]: 727 nM | TGI [17]: 25000 nM | GI50 [18]: 407 nM | TGI [18]: 884 nM | GI50 [19]: 540 nM | TGI [19]: 1320 nM | GI50 [20]: 460 nM | TGI [20]: 1060 nM | GI50 [21]: 521 nM | TGI [21]: 1240 nM | GI50 [22]: 454 nM | TGI [22]: 892 nM | GI50 [23]: 416 nM | TGI [23]: 792 nM | GI50 [24]: 717 nM | TGI [24]: 8790 nM | GI50 [25]: 530 nM | TGI [25]: 2230 nM | GI50 [26]: 512 nM | TGI [26]: 1350 nM | GI50 [27]: 660 nM | TGI [27]: 2210 nM | GI50 [28]: 537 nM | TGI [28]: 1250 nM | GI50 [29]: 586 nM
